Data taken from patent publication US12404232B2, “Compounds and compositions for intracellular delivery of therapeutic agents” (ModernaTX, Inc., priority 2015, dated 2025).

Legend:
[1] = Encapsulation of RNA by the nanoparticle composition (QUANT-IT RIBOGREEN RNA assay); assay type: physicochemical
Excerpt: The efficiency of encapsulation of a therapeutic and/or prophylactic describes the amount of therapeutic and/or prophylactic that is encapsulated or otherwise associated with a nanoparticle composition after preparation, relative to the initial amount provided. The encapsulation efficiency is desirably high (e.g., close to 100%). The encapsulation efficiency may be measured, for example, by comparing the amount of therapeutic and/or prophylactic in a solution containing the nanoparticle composition before and after breaking up the nanoparticle composition with one or more organic solvents or detergents. Fluorescence may be used to measure the amount of free therapeutic and/or prophylactic (e.g., RNA) in a solution. For the nanoparticle compositions described herein, the encapsulation efficiency of a therapeutic and/or prophylactic may be at least 50%, for example 50%, 55%, 60%, 65%, 70%, 75%, 80%, 85%, 90%, 91%, 92%, 93%, 94%, 95%, 96%, 97%, 98%, 99%, or 100%. In some embodiments, the encapsulation efficiency may be at least 80%. In certain embodiments, the encapsulation efficiency may be at least 90%.
For nanoparticle compositions including an RNA, a QUANT-IT™ RIBOGREEN® RNA assay (Invitrogen Corporation Carlsbad, CA) can be used to evaluate the encapsulation of an RNA by the nanoparticle composition. The samples are diluted to a concentration of approximately […] in a TE buffer solution (10 mM Tris-HCl, 1 mM EDTA, pH 7.5). 50 μL of the diluted samples are transferred to a polystyrene 96 well plate and either 50 μL of TE buffer or 50 μL of a 2% Triton X-100 solution is added to the wells. The plate is incubated at a temperature of 37° C. for 15 minutes. The RIBOGREEN® reagent is diluted 1:100 in TE buffer, and 100 μL of this solution is added to each well. The fluorescence intensity can be measured using a fluorescence plate reader (Wallac Victor 1420 Multilablel Counter; Perkin Elmer, Waltham, MA) at an excitation wavelength of, for example, about 480 nm and an emission wavelength of, for example, about 520 nm. The fluorescence values of the reagent blank are subtracted from that of each of the samples and the percentage of free RNA is determined by dividing the fluorescence intensity of the intact sample (without addition of Triton X-100) by the fluorescence value of the disrupted sample (caused by the addition of Triton X-100).
Initial studies were performed to compare the delivery efficiency of nanoparticle compositions including various compounds according to Formula (I), (IA), (II), (IIa), (IIb), (IIc), (IId) or (IIe). The cationic lipid MC3 is a current standard in the art. Accordingly, the standard MC3 formulation including about 50 mol % MC3, about 10 mol % DSPC, about 38.5 mol % cholesterol, and about 1.5 mol % PEG-DMG was used as a basis for this study. Nanoparticle compositions including DSPC as a phospholipid, cholesterol as a structural lipid, PEG-DMG as a PEG lipid, an RNA, and a compound according to Formula (I), (IA), (II), (IIa), (IIb), (IIc), (IId) or (IIe) selected from Compounds 1-159, 168-170, and 173-175 were prepared according to or via methods similar to those described in Examples 1 and 2. The ratios of the lipids were 50:10:38.5:1.5 mol % for the lipid according to Formula (I), (IA), (II), (IIa), (IIb), (IIc), (IId) or (IIe):DSPC:cholesterol:PEG-DMG. The RNA used was an mRNA encoding G5 luciferase (Luc) or G5 hEPO. Tables 1A-1B summarize the content and characteristics of the formulations. […]

[2] = tested on: Cynomolgus monkeys; assay: Anti-HA (anti-hemagglutinin) antibody expression in Cynomolgus monkeys after intravenous infusion; assay type: in vivo; conditions: i.v. infusion 60 minutes
Protocol: Results of hEPO expression studies were validated using a standard MC3 formulation and a nanoparticle composition containing Compound 18 including an mRNA encoding an anti-hemagglutinin (anti-HA) antibody. Cynomolgus monkeys were administered a single dose of 0.1 mpk or 0.3 mpk of a nanoparticle composition containing Compound 18 (see Table 33; prepared according to Example 2) including an mRNA encoding anti-HA antibody via intravenous infusion for 60 minutes.

[3] = tested on: non-human primates; assay: Tolerability in non-human primates (clinical chemistry, hematology, observations); assay type: in vivo, Cynomolgus monkeys
Protocol: The tolerability and efficacy of nanoparticle compositions to non-human primates was also investigated using a sample formulation including Compound 18. The formulation was prepared according to the standard MC3 formulation described above and included an hEPO mRNA. Primates were administered a single dose of 0.05 (Group 1), 0.3 (Group 2), or 1.0 (Group 3) mpk via intravenous infusion for 60 minutes. Three primates were administered each dose. Expression of hEPO was measured prior to dosing and at 2, 6, 24, 48, and 96 hours post-treatment (Table 26). Table 28 includes levels of indicators of complement activation, while Table 29 includes cytokine induction data.
In general, lower doses were better tolerated. High doses induced body temperature elevation and hunched posture, which is similar to the behavior observed for primates administered higher doses of MC3 formulations.

[4] = tested on: mice; assay: Luc expression in liver, lung, spleen and femur after intravenous administration to mice; assay type: in vivo; conditions: Luc mRNA, i.v. to mice, 0.5 mpk, 6 hours
Protocol: The efficacy of the nanoparticle compositions presented in Table 1A was further evaluated by measuring the expression of modified luciferase in the liver, lung, spleen, and femur upon administration of a given composition. Formulations were administered intravenously to mice (n=3) at a dosage of 0.5 mpk and bioluminescence measured after 6 hours. The standard MC3 formulation and a PBS control were also tested. […] Flux in the liver was lowest for compositions including Compounds 58, 59, 137, and 141. Flux in the spleen was highest for compositions including Compounds 4, 7, 33, 34, 48, 53, 108, 129, 130, and 148, and lowest for compositions including Compounds 9, 59, 124, and 141.

[5] = tested on: mice; assay: Luc expression (total flux) after intramuscular administration; assay type: in vivo; conditions: 6 hours after intramuscular administration, Luc mRNA (Table 5B)
[6] = hEPO mRNA, (50:10:38.5:1.5) (Table 10)

| SMILES | EE (%) [1, 6] [%] | EE (%) ([1]; mRNA encoding anti-HA antibody (Table 33)) | AUC ([2]; dose 0.1 mpk) [µg·h/mL] | AUC ([2]; dose 0.3 mpk) [µg·h/mL] | White blood cell counts ([3]; non-human primates, 0.05, 0.3 or 1.0 mpk) | reticulocyte counts on Day 5 ([3]; non-human primates, all groups) | EE (%) ([1]; formulated with hEPO mRNA (Table 1B)) | EE (%) ([1]; nanoparticle composition 50:10:38.5:1.5 mol % (Table 1A)) | Total Flux Femur [4] | Total Flux Liver [4] | Total Flux Lung [4] | Total Flux Spleen [4] | Total flux (p/s) 0.01 mpk Dose [5] [p/s] |
| --- | --- | --- | --- | --- | --- | --- | --- | --- | --- | --- | --- | --- | --- |
| CCCCCCCCCOC(=O)CCCCCCCN(CCO)CCCCCCCC(=O)OC(CCCCCCCC)CCCCCCCC [Compound 18, Heptadecan-9-yl 8-((2-hydroxyethyl)(8-(nonyloxy)-8-oxooctyl)amino)octanoate] | 97.34 | 79.3 | 354.3 | 1055 | slightly elevated in animals in the high dose group | marked increase | – | – | – | – | – | – | – |
| CCCCCC=CCC=CCCCCCCCCC(CCCCCCCCC=CCC=CCCCCC)OC(=O)CCCN(C)C (stereo not shown) [MC3, heptatriaconta-6,9,28,31-tetraen-19-yl 4-(dimethylamino)butanoate, reference compound] | 97.22 | – | 77.05 | 235.7 | – | – | 99.01 | 97.3 | 2.56E+06 | 2.57E+09 | 1.27E+07 | 2.85E+07 | 3.23E+07 |
